Patent publication US4027017A, “Method of treating alcoholism” (Chugai Seiyaku Kabushiki Kaisha, priority 1974, dated 1977)
Values joined by “and” are separate entries in the source; they are usually repeats but may differ in a detail not shown here. Identical values can stand only once. “Also recorded” adds a separate entry of the source.

Experiments:
neutral lipid in liver = experiment: Inhibiting action for accumulation of neutral lipid in liver (ethanol-treated rats; Van Handel and Zilver-Smit method); type: in vivo, Sprague Dawley strain male rats; details: 160 mg/kg oral in corn oil, 30 min before ethanol 6 g/kg oral; liver taken 24 hours after
Method: Inhibiting Action for Accumulation of Neutral Lipid in Liver […] Each rat was orally administered with trisodium uridine-5'-diphosphate glucuronic acid (UDPGA-3.Na) as a suspension in corn oil in a dose of 160 mg/kg.body weight. Thirty minutes after the administration, each rat was orally administered with ethanol as a 50% aqueous solution in a dose of 6 g/kg.body weight and, 24 hours after the administration, the liver was taken out and an amount of neutral lipid contained therein was determined by the Van Handel and Zilver-Smit method. For control, a glucose aqueous solution having a caloric content equivalent to the same amount of ethanol was used instead of ethanol.

alcohol level in blood = experiment: Measurement of alcohol level in blood (alcoholic dehydrogenase method) and behavior; type: in vivo, Sprague Dawley strain female rats; details: 30 min before ethanol 6 g/kg
Method: Measurement of Alcohol Level in Blood
In this Example, Sprague Dawley strain female rats (weighing 150±20 g) divided into groups of 9-12 members each were used.
After abstention from food overnight each rat was orally administered trisodium uridine-5'-diphosphate glucuronic acid (UDPGA.3Na) in the form of a physiological saline solution in a dose of 160 mg/kg.body weight as an effective ingredient and, 30 minutes after the administration, the rat was administered with ethanol in a dose of 6 g/kg body weight. Four hours and thirty minutes after the administration of ethanol, the rat was etherized, and blood was sampled from its heart to determine alcohol level in the blood by a alcoholic dehydrogenase method. For control, a physiological saline solution was used instead of the UDPGA.3Na solution.

[1] = tested on: Sprague Dawley strain male rats; experiment: Behaviour and righting reflex after ethanol, UDPGA.3Na given 30 minutes before ethanol; type: in vivo; details: 160 mg/kg oral 30 min before ethanol 6 g/kg
Method: The Sprague Dawley strain male rats weighing 260±30 g which had been fed rat food commerically available as CLEA CE-2 and prevented from eating food for 12 hours just before the experiment were divided into groups each of 10-13 members each. Each rat was orally administered trisodium uridine-5'-diphosphate glucuronic acid (UDPGA.3Na) in the form of a suspension in corn oil in an amount 160 mg/kg.body weight. Thirty minutes after the administration, ethanol as a 50% aqueous solution was orally administered in a dose of 6 g/kg.body weight and then behavior of the rat was observed over 24 hours.

[2] = tested on: Sprague Dawley strain male rats; experiment: Behaviour and righting reflex after ethanol, UDPGA.3Na given 30 minutes after ethanol; type: in vivo; details: 160 mg/kg oral 30 min after ethanol 6 g/kg
Method: The Sprague Dawley strain male rats weighing 160±30 g which were fed rat food commercially available as CLEA CE-2 and prevented from eating food for 12 hours just before the experiment was started. Each rat was administered with ethanol as a 50% aqueous solution in a dose of 6 g/kg.body weight. Thirty minutes after the administration, the rat was orally administered with a suspension of trisodium uridine-5'-diphosphate glucuronic acid (UDPGA.3Na) in corn oil in a dose of 160 mg/kg.body weight based on UDPGA.3Na. The behavior of the rat was observed over 24 hours after the last administration.

## O=C(O)[C@H]1O[C@H](OP(=O)(O)OP(=O)(O)OC[C@H]2O[C@@H](n3ccc(=O)[nH]c3=O)[C@H](O)[C@@H]2O)[C@H](O)[C@@H](O)[C@@H]1O [UDPGA.3Na, trisodium uridine-5'-diphosphate glucuronic acid]
Neutral lipid in liver
  % inhibition (neutral lipid in liver): 59.7%
  Neutral Lipid in Liver: 23.05 ± 10.72 mg/g
Alcohol level in blood; 160 mg/kg oral in physiological saline, blood 4 h 30 min after ethanol, Confidence Limits: 98%
  Ethanol level in Blood, Average: 1.59 ± 0.93 mg/mL
Alcohol level in blood; 160 mg/kg oral in physiological saline, blood 4 h 30 min after ethanol, test animals 1-12 in block order
  Ethanol level in Blood (individual test animals): 2.21 mg/mL and 1.65 mg/mL and 1.82 mg/mL and 1.41 mg/mL and 1.19 mg/mL and 2.15 mg/mL and 0.85 mg/mL and 0.37 mg/mL and 0.63 mg/mL and 1.79 mg/mL and 2.19 mg/mL and 2.82 mg/mL
Alcohol level in blood; 160 mg/kg oral in physiological saline, test animals 1-12 in block order
  Behavior (individual test animals): lying flat; also recorded: normal walking; also recorded: deep sleep
Alcohol level in blood; 160 mg/kg oral, blood 4 h 30 min after ethanol
  alcohol level in blood in comparison with the control: significantly lowered
[1]; 3 hrs. after alcohol
  Behaviour: Deep Sleep: 2 heads
  Behaviour: Lying Flat: 4 heads
  Behaviour: Normal Walking: 4 heads
  Righting Reflex +: 7 heads
  Righting Reflex -: 3 heads
[1]; 6 hrs. after alcohol
  Behaviour: Deep Sleep: 2 heads
  Behaviour: Lying Flat: 6 heads
  Behaviour: Normal Walking: 2 heads
  Righting Reflex +: 7 heads
  Righting Reflex -: 3 heads
[1]; 9 hrs. after alcohol
  Behaviour: Deep Sleep: 1 heads
  Behaviour: Lying Flat: 6 heads
  Behaviour: Normal Walking: 3 heads
  Righting Reflex +: 9 heads
  Righting Reflex -: 1 heads
[1]; 12 hrs. after alcohol
  Behaviour: Deep Sleep: 0 heads
  Behaviour: Lying Flat: 0 heads
  Behaviour: Normal Walking: 10 heads
  Righting Reflex +: 10 heads
  Righting Reflex -: 0 heads
[1]; 18 hrs. after alcohol
  Behaviour: Deep Sleep: 0 heads
  Behaviour: Lying Flat: 0 heads
  Behaviour: Normal Walking: 10 heads
  Righting Reflex +: 10 heads
  Righting Reflex -: 0 heads
[2]; 3 hrs. after alcohol
  Behaviour: Deep Sleep: 2 heads
  Behaviour: Lying Flat: 5 heads
  Behaviour: Normal Walking: 3 heads
  Righting Reflex +: 7 heads
  Righting Reflex -: 3 heads
[2]; 6 hrs. after alcohol
  Behaviour: Deep Sleep: 2 heads
  Behaviour: Lying Flat: 6 heads
  Behaviour: Normal Walking: 2 heads
  Righting Reflex +: 7 heads
  Righting Reflex -: 3 heads
[2]; 9 hrs. after alcohol
  Behaviour: Deep Sleep: 1 heads
  Behaviour: Lying Flat: 3 heads
  Behaviour: Normal Walking: 6 heads
  Righting Reflex +: 8 heads
  Righting Reflex -: 2 heads
[2]; 12 hrs. after alcohol
  Behaviour: Deep Sleep: 0 heads
  Behaviour: Lying Flat: 2 heads
  Behaviour: Normal Walking: 8 heads
  Righting Reflex +: 10 heads
  Righting Reflex -: 0 heads
[2]; 18 hrs. after alcohol
  Behaviour: Deep Sleep: 0 heads
  Behaviour: Lying Flat: 0 heads
  Behaviour: Normal Walking: 10 heads
  Righting Reflex +: 10 heads
  Righting Reflex -: 0 heads
